Experimental data reported in ChEMBL document CHEMBL3044572, “Discovery of 2-(4-cyano-3-trifluoromethylphenyl amino)-4-(4-quinazolinyloxy)-6-piperazinyl(piperidinyl)-s-triazines as potential antibacterial agents” (2012).
In brackets after ≈: the same amount, converted by molar mass. Activity calls are given as the source filed them. The rule behind the calls is not given here.

Assays:
[1] = tested on: Candida albicans; experiment: Antimicrobial activity against Candida albicans MTCC 183 by agar streak dilution method; type: functional
[2] = tested on: Mycobacterium tuberculosis; experiment: Antimicrobial activity against Mycobacterium tuberculosis H37Rv at 100 ug/ml by BACTEC MGIT method; type: functional, organism-based
[3] = tested on: Mycobacterium tuberculosis; experiment: Antimicrobial activity against Mycobacterium tuberculosis H37Rv by BACTEC MGIT method; type: functional; settings: Mycobacterium tuberculosis, H37Rv
[4] = tested on: Klebsiella pneumoniae; experiment: Antimicrobial activity against Klebsiella pneumoniae MTCC 109 by agar streak dilution method; type: functional
[5] = tested on: Aspergillus fumigatus; experiment: Antimicrobial activity against Aspergillus fumigatus MTCC 343 at 100 ug/ml by paper-disk diffusion method; type: functional, organism-based
[6] = tested on: Aspergillus clavatus; experiment: Antimicrobial activity against Aspergillus clavatus MTCC 1323 at 100 ug/ml by paper disk diffusion method; type: functional, organism-based
[7] = tested on: Staphylococcus aureus; experiment: Antimicrobial activity against Staphylococcus aureus MTCC 96 by paper-disk diffusion method; type: functional
[8] = tested on: Escherichia coli; experiment: Antimicrobial activity against Escherichia coli MTCC 739 by agar streak dilution method; type: functional
[9] = tested on: Salmonella typhi; experiment: Antimicrobial activity against Salmonella enterica subsp. enterica serovar Typhi MTCC 733 by paper disk diffusion method; type: functional
[10] = tested on: Staphylococcus aureus; experiment: Antimicrobial activity against Staphylococcus aureus MTCC 96 by agar streak dilution method; type: functional
[11] = tested on: Escherichia coli; experiment: Antimicrobial activity against Escherichia coli MTCC 739 by paper disk diffusion method; type: functional
[12] = tested on: Salmonella typhi; experiment: Antimicrobial activity against Salmonella enterica subsp. enterica serovar Typhi MTCC 733 by agar streak dilution method; type: functional
[13] = tested on: Aspergillus niger; experiment: Antimicrobial activity against Aspergillus niger MTCC 282 at 100 ug/ml by paper-disk diffusion method; type: functional, organism-based
[14] = tested on: Mycobacterium tuberculosis; experiment: Antimicrobial activity against Mycobacterium tuberculosis H37Rv by Lowenstein and Jensen method; type: functional; settings: for MIC: Mycobacterium tuberculosis, H37Rv
[15] = tested on: Pseudomonas aeruginosa; experiment: Antimicrobial activity against Pseudomonas aeruginosa MTCC 741 at 100 ug/ml by paper disk diffusion method; type: functional, organism-based
[16] = tested on: Klebsiella pneumoniae; experiment: Antimicrobial activity against Klebsiella pneumoniae MTCC 109 by paper disk diffusion method; type: functional
[17] = tested on: Proteus vulgaris; experiment: Antimicrobial activity against Proteus vulgaris MTCC 1771 at 100 ug/ml by paper disk diffusion method; type: functional, organism-based
[18] = tested on: Candida albicans; experiment: Antimicrobial activity against Candida albicans MTCC 183 by paper-disk diffusion method; type: functional
[19] = tested on: Bacillus cereus; experiment: Antimicrobial activity against Bacillus cereus MTCC 619 at 100 ug/ml by paper disk diffusion method; type: functional, organism-based
[20] = tested on: Shigella flexneri; experiment: Antimicrobial activity against Shigella flexneri MTCC 1457 at 100 ug/ml by paper-disk diffusion method; type: functional, organism-based
[21] = tested on: Klebsiella pneumoniae; experiment: Antimicrobial activity against Klebsiella pneumoniae MTCC 109 at 100 ug/ml by paper disk diffusion method; type: functional, organism-based
[22] = tested on: Proteus vulgaris; experiment: Antimicrobial activity against Proteus vulgaris MTCC 1771 by agar streak dilution method; type: functional
[23] = tested on: Salmonella typhi; experiment: Antimicrobial activity against Salmonella enterica subsp. enterica serovar Typhi MTCC 733 at 100 ug/ml by paper disk diffusion method; type: functional, organism-based
[24] = tested on: Escherichia coli; experiment: Antimicrobial activity against Escherichia coli MTCC 739 at 100 ug/ml by paper-disk diffusion method; type: functional, organism-based
[25] = tested on: Staphylococcus aureus; experiment: Antimicrobial activity against Staphylococcus aureus MTCC 96 at 100 ug/ml by paper-disk diffusion method; type: functional, organism-based
[26] = tested on: Proteus vulgaris; experiment: Antimicrobial activity against Proteus vulgaris MTCC 1771 by paper disk diffusion method; type: functional
[27] = tested on: Candida albicans; experiment: Antimicrobial activity against Candida albicans MTCC 183 at 100 ug/ml by paper-disk diffusion method; type: functional, organism-based
[28] = tested on: Shigella flexneri; experiment: Antimicrobial activity against Shigella flexneri MTCC 1457 by paper disk diffusion method; type: functional
[29] = tested on: Shigella flexneri; experiment: Antimicrobial activity against Shigella flexneri MTCC 1457 by agar streak dilution method; type: functional
[30] = tested on: Pseudomonas aeruginosa; experiment: Antimicrobial activity against Pseudomonas aeruginosa MTCC 741 by paper disk diffusion method; type: functional
[31] = tested on: Aspergillus niger; experiment: Antimicrobial activity against Aspergillus niger MTCC 282 by agar streak dilution method; type: functional
[32] = tested on: Aspergillus niger; experiment: Antimicrobial activity against Aspergillus niger MTCC 282 by paper-disk diffusion method; type: functional
[33] = tested on: Pseudomonas aeruginosa; experiment: Antimicrobial activity against Pseudomonas aeruginosa MTCC 741 by agar streak dilution method; type: functional
[34] = tested on: Bacillus cereus; experiment: Antimicrobial activity against Bacillus cereus MTCC 619 by agar streak dilution method; type: functional
[35] = tested on: Bacillus cereus; experiment: Antimicrobial activity against Bacillus cereus MTCC 619 by paper disk diffusion method; type: functional
[36] = tested on: Aspergillus fumigatus; experiment: Antimicrobial activity against Aspergillus fumigatus MTCC 343 by agar streak dilution method; type: functional
[37] = tested on: Aspergillus fumigatus; experiment: Antimicrobial activity against Aspergillus fumigatus MTCC 343 by paper-disk diffusion method; type: functional

Row | SMILES | MIC [1] [µg/mL] | inhibition [2] | MIC [3] [µg/mL] | inhibition zone (IZ) [5] | inhibition zone (IZ) [6] | inhibition zone (IZ) [7] [mm] | MIC [8] [µg/mL] | inhibition zone (IZ) [9] [mm] | MIC [10] [µg/mL] | MIC [12] [µg/mL] | inhibition zone (IZ) [13] | inhibition (percent inhibition) [14] [%] | MIC [14] [µg/mL] | inhibition zone (IZ) [15] | inhibition zone (IZ) [17] | inhibition zone (IZ) [18] [mm] | inhibition zone (IZ) [19] | inhibition zone (IZ) [20] | inhibition zone (IZ) [21] | inhibition zone (IZ) [24] | other results
1 | CCN1CCN(c2nc(Nc3ccc(C#N)c(C(F)(F)F)c3)nc(Oc3ncnc4ccccc34)n2)CC1 | 100 (≈ 192 µM) | inactive | > 6.25 | inactive | inactive | 23 | 100 (≈ 192 µM) | 23 | 100 (≈ 192 µM) | 100 (≈ 192 µM) | inactive | 95 | 500 (≈ 959 µM) | inactive | inactive | 21 | inactive | inactive | – | – | MIC [4]: 100 µg/mL (≈ 192 µM); inhibition zone (IZ) [11]: 21 mm; inhibition zone (IZ) [16]: 19 mm
2 | N#Cc1ccc(Nc2nc(Oc3ncnc4ccccc34)nc(N3CCN(c4ccccc4)CC3)n2)cc1C(F)(F)F | 100 (≈ 176 µM) | inactive | > 6.25 | inactive | inactive | – | – | – | – | – | inactive | 94 | 1000 (≈ 1760 µM) | inactive | – | 19 | inactive | inactive | inactive | inactive | MIC [22]: 50 µg/mL (≈ 87.8 µM); inhibition zone (IZ) [23]: inactive; inhibition zone (IZ) [25]: inactive; inhibition zone (IZ) [26]: 23 mm
3 | CN1CCN(c2nc(Nc3ccc(C#N)c(C(F)(F)F)c3)nc(Oc3ncnc4ccccc34)n2)CC1 | – | inactive | > 6.25 | inactive | inactive | – | – | – | – | – | inactive | 95 | 250 (≈ 493 µM) | inactive | inactive | – | inactive | – | inactive | inactive | inhibition zone (IZ) [27]: inactive; inhibition zone (IZ) [28]: 22 mm; inhibition zone (IZ) [23]: inactive; MIC [29]: 100 µg/mL (≈ 197 µM); inhibition zone (IZ) [25]: inactive
4 | N#Cc1ccc(Nc2nc(Oc3ncnc4ccccc34)nc(N3CCCCC3)n2)cc1C(F)(F)F | 100 (≈ 203 µM) | inactive | > 6.25 | inactive | inactive | 22 | – | 20 | 100 (≈ 203 µM) | 100 (≈ 203 µM) | – | 94 | 500 (≈ 1020 µM) | – | – | 20 | inactive | inactive | inactive | inactive | MIC [22]: 100 µg/mL (≈ 203 µM); inhibition zone (IZ) [30]: 22 mm; MIC [31]: 100 µg/mL (≈ 203 µM); inhibition zone (IZ) [32]: 21 mm; MIC [33]: 100 µg/mL (≈ 203 µM); inhibition zone (IZ) [26]: 20 mm
5 | N#Cc1ccc(Nc2nc(Oc3ncnc4ccccc34)nc(N3CCOCC3)n2)cc1C(F)(F)F | 100 (≈ 202 µM) | inactive | > 6.25 | – | inactive | 22 | 100 (≈ 202 µM) | 22 | 100 (≈ 202 µM) | 100 (≈ 202 µM) | – | 98 | 100 (≈ 202 µM) | – | inactive | 20 | – | inactive | inactive | – | MIC [34]: 100 µg/mL (≈ 202 µM); inhibition zone (IZ) [30]: 22 mm; inhibition zone (IZ) [11]: 21 mm; MIC [31]: 100 µg/mL (≈ 202 µM); inhibition zone (IZ) [32]: 22 mm; inhibition zone (IZ) [35]: 23 mm; MIC [33]: 100 µg/mL (≈ 202 µM); MIC [36]: 100 µg/mL (≈ 202 µM); inhibition zone (IZ) [37]: 21 mm
